Data taken from PubChem BioAssay (NCI).
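How tested: cells in 96-well plates exposed to compound for 48 hours at five concentrations. Abbreviation: GI50, concentration required for 50% inhibition of growth. TGI marks complete inhibition of growth.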

How the values were obtained:
Assay in all cases: inhibition of tumour cell growth, NCI panel, 48 h
[1] = tested on: HCT-116 colon
[2] = tested on: COLO 205 colon
[3] = tested on: OVCAR-8 ovarian
[4] = tested on: MDA-MB-435
[5] = tested on: OVCAR-5 ovarian
[6] = tested on: K-562 leukemia
[7] = tested on: HS 578T breast
[8] = tested on: SK-OV-3 ovarian
[9] = tested on: U251 CNS
[10] = tested on: NCI-H522 lung
[11] = tested on: HT29 colon
[12] = tested on: IGROV1 ovarian
[13] = tested on: TK-10 renal
[14] = tested on: MCF7 breast
[15] = tested on: NCI-H23 lung
[16] = tested on: NCI/ADR-RES ovarian
[17] = tested on: 786-0 renal
[18] = tested on: SF-295 CNS
[19] = tested on: MALME-3M melanoma
[20] = tested on: SNB-75 CNS
[21] = tested on: LOX IMVI melanoma
[22] = tested on: UACC-62 melanoma
[23] = tested on: UACC-257 melanoma
[24] = tested on: HOP-62 NSCLC
[25] = tested on: T-47D breast
[26] = tested on: CAKI-1 renal
[27] = tested on: SF-539 CNS
[28] = tested on: ACHN renal
[29] = tested on: PC-3 prostate
[30] = tested on: SF-268 CNS
[31] = tested on: M14 melanoma
[32] = tested on: SW-620 colon
[33] = tested on: NCI-H226 lung
[34] = tested on: MDA-MB-231 breast
[35] = tested on: SK-MEL-28 melanoma
[36] = tested on: CCRF-CEM leukemia
[37] = tested on: SR leukemia
[38] = tested on: SN12C renal
[39] = tested on: SNB-19 CNS
[40] = tested on: HOP-92 NSCLC
[41] = tested on: NCI-H460 lung
[42] = tested on: BT-549 breast
[43] = tested on: A498 renal
[44] = tested on: MOLT-4 leukemia
[45] = tested on: HCC-2998 colon
[46] = tested on: HL-60(TB) leukemia
[47] = tested on: UO-31 renal
[48] = tested on: KM12 colon
[49] = tested on: HCT-15 colon
[50] = tested on: SK-MEL-5 melanoma
[51] = tested on: RPMI-8226 leukemia
[52] = tested on: OVCAR-3 ovarian
[53] = tested on: RXF 393 renal
[54] = tested on: DU-145 prostate
[55] = tested on: OVCAR-4 ovarian
[56] = tested on: SK-MEL-2 melanoma
[57] = tested on: A549 NSCLC
[58] = tested on: EKVX NSCLC

Compound: CC(C)c1[nH]nc2c1N=C(c1ccccc1Cl)c1cc([N+](=O)[O-])ccc1N2
- GI50 [1]: 4.35 µM
- TGI [1]: > 25 µM
- GI50 [2]: 10.3 µM
- TGI [2]: > 25 µM
- GI50 [3]: 9.1 µM
- TGI [3]: > 25 µM
- GI50 [4]: 0.87 µM
- TGI [4]: > 25 µM
- GI50 [5]: 12.2 µM
- TGI [5]: > 25 µM
- GI50 [6]: 1.98 µM
- TGI [6]: > 25 µM
- GI50 [7]: 3.16 µM
- TGI [7]: > 20.7 µM
- GI50 [8]: 10.1 µM
- TGI [8]: > 25 µM
- GI50 [9]: 6.16 µM
- TGI [9]: > 25 µM
- GI50 [10]: 2.29 µM
- TGI [10]: > 18.3 µM
- GI50 [11]: 8.72 µM
- TGI [11]: > 22.2 µM
- GI50 [12]: 9.46 µM
- TGI [12]: 24.4 µM
- GI50 [13]: 7.31 µM
- TGI [13]: > 23.1 µM
- GI50 [14]: 4.53 µM
- TGI [14]: 24.3 µM
- GI50 [15]: 7.24 µM
- TGI [15]: > 25 µM
- GI50 [16]: 6.37 µM
- TGI [16]: > 25 µM
- GI50 [17]: 5.74 µM
- TGI [17]: > 24 µM
- GI50 [18]: 8.52 µM
- TGI [18]: > 25 µM
- GI50 [19]: > 16.2 µM
- TGI [19]: > 25 µM
- GI50 [20]: 1.31 µM
- TGI [20]: > 17.6 µM
- GI50 [21]: 5 µM
- TGI [21]: > 17.5 µM
- GI50 [22]: 4.18 µM
- TGI [22]: > 23.5 µM
- GI50 [23]: 10.1 µM
- TGI [23]: > 25 µM
- GI50 [24]: 6.58 µM
- TGI [24]: > 25 µM
- GI50 [25]: 8.75 µM
- TGI [25]: > 23 µM
- GI50 [26]: 2.53 µM
- TGI [26]: > 13.7 µM
- GI50 [27]: 7.27 µM
- TGI [27]: > 22 µM
- GI50 [28]: 5.45 µM
- TGI [28]: 20.4 µM
- GI50 [29]: 6.7 µM
- TGI [29]: > 25 µM
- GI50 [30]: 7.92 µM
- TGI [30]: > 25 µM
- GI50 [31]: 7.63 µM
- TGI [31]: > 25 µM
- GI50 [32]: 2.2 µM
- TGI [32]: > 25 µM
- GI50 [33]: 5.09 µM
- TGI [33]: 16.1 µM
- GI50 [34]: 7.92 µM
- TGI [34]: > 25 µM
- GI50 [35]: 6.26 µM
- TGI [35]: > 25 µM
- GI50 [36]: 5.34 µM
- TGI [36]: > 17.8 µM
- GI50 [37]: 1.51 µM
- TGI [37]: 10 µM
- GI50 [38]: 8.17 µM
- TGI [38]: > 25 µM
- GI50 [39]: 11.8 µM
- TGI [39]: > 25 µM
- GI50 [40]: 4 µM
- TGI [40]: 12.6 µM
- GI50 [41]: 5.77 µM
- TGI [41]: 15.9 µM
- GI50 [42]: 6.66 µM
- TGI [42]: > 22.1 µM
- GI50 [43]: 4.53 µM
- TGI [43]: 9.37 µM
- GI50 [44]: 6.76 µM
- TGI [44]: 20.6 µM
- GI50 [45]: 6.91 µM
- TGI [45]: > 19.1 µM
- GI50 [46]: 4.99 µM
- TGI [46]: 12.2 µM
- GI50 [47]: 5.46 µM
- TGI [47]: > 18.5 µM
- GI50 [48]: 1.79 µM
- TGI [48]: 6.31 µM
- GI50 [49]: 3.86 µM
- TGI [49]: > 25 µM
- GI50 [50]: 5.33 µM
- TGI [50]: 16.2 µM
- GI50 [51]: 8.85 µM
- TGI [51]: > 22.6 µM
- GI50 [52]: 4.68 µM
- TGI [52]: 13.1 µM
- GI50 [53]: 3.64 µM
- TGI [53]: 8.45 µM
- GI50 [54]: 7.87 µM
- TGI [54]: > 23.6 µM
- GI50 [55]: 8.06 µM
- TGI [55]: > 24.2 µM
- GI50 [56]: 5.49 µM
- TGI [56]: 13.4 µM
- GI50 [57]: 5.18 µM
- TGI [57]: > 22.3 µM

Compound: O=C1c2ccccc2-c2c1c1ccccc1c(=O)n2CCN1CCNCC1
- GI50 [1]: 0.573 µM
- TGI [1]: 3.97 µM
- GI50 [2]: 5.4 µM
- TGI [2]: 18.2 µM
- GI50 [3]: 0.968 µM
- TGI [3]: 3.59 µM
- GI50 [4]: 1.97 µM
- TGI [4]: 4.2 µM
- GI50 [5]: 1.55 µM
- TGI [5]: 6.92 µM
- GI50 [6]: 0.902 µM
- TGI [6]: 5.05 µM
- GI50 [7]: 3.74 µM
- TGI [7]: 26.5 µM
- GI50 [8]: 1.73 µM
- TGI [8]: 6.26 µM
- GI50 [9]: 1.08 µM
- TGI [9]: 3.66 µM
- GI50 [10]: 3.06 µM
- TGI [10]: 19.3 µM
- GI50 [11]: 1.58 µM
- TGI [11]: 8.02 µM
- GI50 [12]: 3.61 µM
- TGI [12]: > 100 µM
- GI50 [13]: 2.21 µM
- TGI [13]: 11.3 µM
- GI50 [14]: 0.836 µM
- TGI [14]: 17.5 µM
- GI50 [16]: 2.55 µM
- TGI [16]: 11.4 µM
- GI50 [17]: 2.88 µM
- TGI [17]: 12.4 µM
- GI50 [18]: 0.552 µM
- TGI [18]: 3.05 µM
- GI50 [19]: 2.53 µM
- TGI [19]: 6.79 µM
- GI50 [20]: 6.26 µM
- TGI [20]: 23.2 µM
- GI50 [21]: 0.735 µM
- TGI [21]: 2.99 µM
- GI50 [22]: 1.37 µM
- TGI [22]: 3.15 µM
- GI50 [23]: 4.98 µM
- TGI [23]: 16.9 µM
- GI50 [24]: 1.92 µM
- TGI [24]: 6.27 µM
- GI50 [25]: 2.4 µM
- TGI [25]: 16.2 µM
- GI50 [26]: 0.465 µM
- TGI [26]: 2.9 µM
- GI50 [28]: 0.316 µM
- TGI [28]: 1.3 µM
- GI50 [29]: 4.02 µM
- TGI [29]: 17.8 µM
- GI50 [30]: 5.83 µM
- TGI [30]: 26.4 µM
- GI50 [32]: 1.47 µM
- TGI [32]: 7.28 µM
- GI50 [33]: 1.06 µM
- TGI [33]: 3.15 µM
- GI50 [34]: 2.45 µM
- TGI [34]: 10.7 µM
- GI50 [35]: 5.82 µM
- TGI [35]: 27.6 µM
- GI50 [36]: 0.671 µM
- TGI [36]: 4.26 µM
- GI50 [38]: 2.21 µM
- TGI [38]: 18.1 µM
- GI50 [39]: 1.32 µM
- TGI [39]: 4.9 µM
- GI50 [40]: 4.44 µM
- TGI [40]: 17.4 µM
- GI50 [41]: 0.668 µM
- TGI [41]: > 100 µM
- GI50 [42]: 4.96 µM
- TGI [42]: 17.8 µM
- GI50 [44]: 0.253 µM
- TGI [44]: 0.688 µM
- GI50 [45]: 0.785 µM
- TGI [45]: 5.01 µM
- GI50 [58]: 7.24 µM
- TGI [58]: 26.4 µM
- GI50 [47]: 2.24 µM
- TGI [47]: 13 µM
- GI50 [48]: 1.24 µM
- TGI [48]: 3.47 µM
- GI50 [49]: 0.935 µM
- TGI [49]: 11.3 µM
- GI50 [51]: 1.63 µM
- TGI [51]: 4.43 µM
- GI50 [52]: 1.12 µM
- TGI [52]: 6.93 µM
- GI50 [53]: 4.31 µM
- TGI [53]: 19.6 µM
- GI50 [54]: 3.11 µM
- TGI [54]: 8.79 µM
- GI50 [55]: 10.4 µM
- TGI [55]: 33 µM
- GI50 [56]: 12.7 µM
- TGI [56]: 36.2 µM
- GI50 [57]: 0.576 µM
- TGI [57]: 3.6 µM
